PMC10782561 (Chemico-biological interactions, 2023)
Where two headings read alike, the source gives them in different places.

Assays:
[1] = type: in vivo, human
human CYP1A2 = human CYP1A2 (Homo sapiens, UniProt P05177); assay: Phe inhibition of human CYP1A2, P450-Glo assay; type: biochemical
[2] = test system: Salmonella strains TA100, TA 97a, TA98 and TA102; conditions: cited from earlier work
[3] = [14C]-BaP metabolite in human plasma, 0-48 h, BaP + Phe dose, mean ± SD
[4] = [14C]-BaP metabolite in human plasma, 0-48 h, BaP only dose, mean ± SD
[5] = [14C]-BaP metabolite in human plasma, BaP + Phe dose, mean ± SD
[6] = [14C]-BaP metabolite in human plasma, BaP only dose, mean ± SD

Sequence of human CYP1A2 (P05177 whole entry): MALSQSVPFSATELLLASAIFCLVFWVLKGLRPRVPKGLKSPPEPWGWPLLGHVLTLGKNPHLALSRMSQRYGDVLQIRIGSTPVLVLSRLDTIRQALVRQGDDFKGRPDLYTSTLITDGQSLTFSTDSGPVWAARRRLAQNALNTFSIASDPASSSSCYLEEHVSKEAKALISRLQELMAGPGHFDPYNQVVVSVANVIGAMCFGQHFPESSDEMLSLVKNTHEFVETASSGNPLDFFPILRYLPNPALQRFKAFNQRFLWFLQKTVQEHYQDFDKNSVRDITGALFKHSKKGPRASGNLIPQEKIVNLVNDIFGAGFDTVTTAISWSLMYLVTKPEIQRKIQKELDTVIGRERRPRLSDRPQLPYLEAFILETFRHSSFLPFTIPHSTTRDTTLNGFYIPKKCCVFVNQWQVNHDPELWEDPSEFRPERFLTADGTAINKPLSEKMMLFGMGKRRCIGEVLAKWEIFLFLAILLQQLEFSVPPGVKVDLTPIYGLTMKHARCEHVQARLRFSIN

Row | Compound | AUC [1, 3] [fg BaP/mL×h] | AUC [1, 4] [fg BaP/mL×h] | AUC(0,∞) [1, 5] [fg BaP/mL×h] | Cmax [1, 5] [fg BaP/mL] | T1/2 [1, 5] [h] | Tmax [1, 5] [h] | AUC(0,∞) [1, 6] [fg BaP/mL×h] | Cmax [1, 6] [fg BaP/mL] | T1/2 [1, 6] [h] | Tmax [1, 6] [h] | further results
1 | O[C@H]1C=Cc2c(cc3ccc4cccc5ccc2c3c45)[C@@H]1O (racemic) [7,8-dihydrodiol, (±) trans-benzo[a]pyrene-7,8-dihydrodiol] | 10.53 ± 9.26 | 28.04 ± 34.04 | 10.53 ± 9.26 | 2.54 ± 2.07 | 2.25 ± 0.55 | 2.3 ± 1.2 | 28.04 ± 34.04 | 4.12 ± 3.04 | 4.72 ± 4.18 | 1.7 ± 0.8 | 
2 | Oc1ccc2ccc3c4ccccc4cc4ccc1c2c43 [3-OH] | 5.90 ± 4.33 | 9.99 ± 7.43 | 5.90 ± 4.33 | 2.00 ± 1.03 | 1.59 ± 0.36 | 2.2 ± 0.8 | 9.99 ± 7.43 | 4.85 ± 3.31 | 1.85 ± 0.56 | 1.7 ± 0.8 | 
3 | Oc1ccc2cc3ccc4cccc5ccc(c2c1)c3c45 [9-OH] | 0.74 ± 0.82 | 3.40 ± 3.83 | 0.74 ± 0.82 | 0.66 ± 0.38 | 1.40 ± 0.49 | 2.0 ± 0.7 | 3.40 ± 3.83 | 2.32 ± 2.36 | 1.33 ± 0.39 | 1.4 ± 0.7 | 
4 | c1ccc2c(c1)ccc1ccccc12 [Phe, phenanthrene] |  |  |  |  |  |  |  |  |  |  | Ki (human CYP1A2): 12.6 µM; type of inhibition of hCYP1A2 (human CYP1A2; Lineweaver-Burk plot): competitive
5 | Cc1cccc2c1ccc1cc(C(C)C)ccc12 [Retene, 7-isopropyl-1-methylphenanthrene] |  |  |  |  |  |  |  |  |  |  | mutagenicity [2]: negative
6 | c1ccc2c(c1)cc1ccc3cccc4ccc2c1c34 [[^14C]-BaP, benzo[a]pyrene] |  |  |  |  |  |  |  |  |  |  | Cl ([1]; both, human, in vivo): 3707 ± 2267 L/h; Vd ([1]; both, human, in vivo): 17550 ± 9725 L; half-life ([1]; both, human, in vivo, T1/2): 4.78 ± 4.45 h; Tmax ([1]; both, human, in vivo, Tmax): 1.1 ± 1.1 h; half-life ([1]; both, human, in vivo, po, T1/2 in blood): 1.1 ± 1.1 h; AUC ([1]; human, in vivo): 17.88 ± 9.56 fg BaP/mL×h; AUC(0,∞) ([1]; human, in vivo): 17.88 ± 9.56 fg BaP/mL×h
